According to patent US4013663A, “Isoquinoline compounds” (priority 1974, dated 1977):

Columns and labels:
[1] = in vivo; settings: mouse, in vivo, iv
Description: (§1) The investigations on toxicity were carried out by intravenous administration to albino mice.

[2] = tested on: albino mice; assay: in vivo; settings: Table 3
Description: as §1

[3] = tested on: β-receptors of the blood vessel system; assay: β-receptor blocking activity on the blood vessel system (blood pressure measurement in the same animal); assay type: in vivo, guinea pig; settings: ratio of effective doses from Table 1, given as 1: x
Description: (§2) The particular β-receptor blocking activity on the heart in comparison to that on the blood vessel system was measured by the taking of an EKG or by measurement of the blood pressure in the same animal (guinea pigs) [cf. J. R. C. Baird et al., J. Pharm. Pharmac. […] For investigation of broncho-constrictor activity, the inhibition of the isoprenalin effect on the bronchial system of the guinea pig is employed [cf. H. Konzett et al., Arch. exp. Path. Pharmak.

[4] = tested on: β-receptors of the bronchial system; assay: inhibition of the isoprenalin effect on the bronchial system; assay type: in vivo, guinea pig; settings: for dosage relationships in comparison with the comparison compound: Table 2, versus F; for influence of heart-active doses on the bronchial system: at heart-active doses; for Heart: Bronchial System (activity relationship, heart = 1): ratio of effective doses from Table 1, given as 1: x
Description: as §2

## CC(C)NCC(O)COc1cccc2c1CCN(C=O)C2 (stereo not shown) [Substance C, 2-formyl-1,2,3,4-tetrahydro-5-(2-hydroxy-3-isopropylamino-propoxy)-isoquinoline]
[1]
  LD50: 148 mg/kg
[2]
  toxicity and activity in comparison with E, F, and G: less toxic at higher activity

## COc1cc2c(cc1OCC(O)CNC(C)C)CCN(C(C)=O)C2 (stereo not shown) [Substance B, 2-acetyl-1,2,3,4-tetrahydro-6-(2-hydroxy-3-isopropylamino-propoxy)-7-methoxy-isoquinoline]
[3]
  Heart: Blood vessels (activity relationship, heart = 1): 1.8
[4]
  dosage relationships in comparison with the comparison compound: essentially more favorable than for the comparison compound
  influence of heart-active doses on the bronchial system: does not lead to a negative influence on the bronchial system
  Heart: Bronchial System (activity relationship, heart = 1): > 7.2

## CC(C)NCC(O)COc1cccc2[nH]ccc12 (stereo not shown) [Substance E, prindolol, reference compound]
[1]
  LD50: 22.6 mg/kg

## CC(=O)N1CCc2cc(OCC(O)CNC(C)C)ccc2C1 (stereo not shown) [Substance A, 2-acetyl-1,2,3,4-tetrahydro-6-(2-hydroxy-3-isopropylamino-propoxy)-isoquinoline]
[3]
  Heart: Blood vessels (activity relationship, heart = 1): 6.2
[4]
  dosage relationships in comparison with the comparison compound: essentially more favorable than for the comparison compound
  influence of heart-active doses on the bronchial system: does not lead to a negative influence on the bronchial system
  Heart: Bronchial System (activity relationship, heart = 1): 5.5

## CC(C)(C)NCC(O)COc1cccc2c1CCN(C=O)C2 (stereo not shown) [Substance D, 2-formyl-1,2,3,4-tetrahydro-5-(2-hydroxy-3-tert.-butylaminopropoxy)-isoquinoline]
[1]
  LD50: 128 mg/kg
[2]
  toxicity and activity in comparison with E, F, and G: less toxic at higher activity

## CC(=O)Nc1ccc(OCC(O)CNC(C)C)cc1 (stereo not shown) [Substance G, practolol, reference compound]
[1]
  LD50: 121 mg/kg

## CC(C)NCC(O)COc1cccc2ccccc12 (stereo not shown) [Substance F, propranolol, reference compound]
[3]
  Heart: Blood vessels (activity relationship, heart = 1): 1
[4]
  Heart: Bronchial System (activity relationship, heart = 1): 0.15
